Read-outs that look alike come from different tables or passages of the source.
Columns and labels:
[1] = Recirculation intestinal perfusion method, Peff of model drugs with water flux corrected by marker; assay type: in vivo, rat
Procedure: A male rat weighing about 200 g was anesthetized and then fixed on a plate heated by a lamp at 37 °C. Through careful operation, two glass tubs were tightly secured on both ends of the intestinal segment using silk sutures. The Krebs–Ringer buffer was injected into the gut from the head end of the intestinal segment with a syringe until the outflow was clear. The intestine was then covered with cotton gauze wetted with 37 °C Krebs–Ringer buffer to maintain intestinal integrity and activity. The peristaltic pump and donor chamber (syringe) were connected with two catheters ligated onto the two abovementioned glass tubs. The intestinal segments were placed carefully back into the rat abdomen to avoid interference with blood circulation. […] After stabilizing the whole system for 10 min with the perfusion solution (peristaltic pump, flow: 5 mL/min), the initial sample (0.4 mL, C’0) was collected from the donor chamber, and the equal perfusion solution with the model drug (100 μM, C0) was added into the donor chamber. Samples (0.4 mL, C’t and Ce) were then collected every 10 min for 60 min. Finally, the length of the perfused intestinal segment was precisely measured at the end of the experiment.
Internal standard solution (cresol red, 600 μg/mL) was added into the 300-μL sample solution and vortexed for 30 s. Then, 600 μL of […] was added, and the samples were vortexed for 2 min. After homogeneous mixing, the mixture was centrifuged at 10,000 rpm for 10 min. Finally, the 20-μL treated supernatant was subjected to detection by HPLC.
Thus, it was necessary to correct the volume of the perfusion solution during the experiment. In this work, the volumes of the perfused solutions (Vt) were calculated from the experimental concentrations of the markers (C’t) as (4) V0=C^′V^′/C0′ (5) Vt=(V0−0.4)Ct−1′+0.4C^′/Ct′ (t=1,2,3…).
The corrected drug concentration (Ct) was calculated as (6) Ct=CeVt/V0 where Ct represents the concentration of the compound corrected by the marker at time t, and Ce represents the experimental drug concentration value.
The apparent absorption rate coefficients (ka) were obtained by the equation of luminal corrected concentration versus time:(7) Ct=C0×e^−ka·t.
The Peff value was obtained from ka using the following equation, where R is the effective radius of the intestinal segment:(8) Peff=Ka·R/2.

[2] = set-up: method as in ref 39 (Ruiz-Picazo et al. 2017); conditions: Doluisio method, ref 39 (Ruiz-Picazo et al. 2017), cited from earlier work
[3] = Stability of markers and model drugs in Krebs–Ringer buffer (shaker bath, 37 °C, 120 min); assay type: physicochemical; conditions: for Ending (120 min) Conc. / Initial Conc.: 37 °C shaker bath, mean ± SD, n = 3; for Initial Conc.: start of experiment; for Percentage of concentration change: (Initial Conc. - Ending Conc.) / Initial Conc., 37 °C; for Ending (120 min) Conc. / Percentage of concentration change: 120 min
Procedure: At the beginning and end (120 min) of the experiment, perfusion solution samples (0.4 mL) were acquired and centrifuged at 12,000 rpm for 10 min to determine the concentration changes of all compounds by HPLC analysis.
Table S1. Concentration changes of all compounds before and after the shaker bath
experiment. Data are shown as mean ± SD, n = 3.
Initial Ending Percentage of
Compound (120 min) concentration
As/Ai Conc. (μM) As/Ai Conc. (μM) change
As: HPLC peak area of compound .
Ai: HPLC peak area of internal standard .
Percentage of concentration change: (Initial Conc. -Ending Conc.) / Initial Conc.
Figure S7. Calibration line of PR (MW = 354) in Krebs–Ringer buffer.
(1 picture or pasted object on this page, not shown here)

[4] = Water flux (Jwater) corrected by marker in the recirculation perfusion model; assay type: in vivo, rat; conditions: 60–120 min, marker 56 μM, mean ± SD, n = 6
Procedure: The effective intestinal membrane permeability (Peff) of each model drug was surveyed using the recirculation intestinal perfusion method, as previously mentioned. A male rat weighing about 200 g was anesthetized and then fixed on a plate heated by a lamp at 37 °C. Through careful operation, two glass tubs were tightly secured on both ends of the intestinal segment using silk sutures. The Krebs–Ringer buffer was injected into the gut from the head end of the intestinal segment with a syringe until the outflow was clear. The intestine was then covered with cotton gauze wetted with 37 °C Krebs–Ringer buffer to maintain intestinal integrity and activity. The peristaltic pump and donor chamber (syringe) were connected with two catheters ligated onto the two abovementioned glass tubs. […] Finally, the length of the perfused intestinal segment was precisely measured at the end of the experiment.
As previously mentioned, the water flux through the membrane due to water absorption and secretion was of such significance that it could have influence on the accuracy of the experimental results. […] In this work, the volumes of the perfused solutions (Vt) were calculated from the experimental concentrations of the markers (C’t) as (4) V0=C^′V^′/C0′ (5) Vt=(V0−0.4)Ct−1′+0.4C^′/Ct′ (t=1,2,3…).
Jwater corrected by the marker was calculated using the following equation:(9) Jwater=d(V0−Vt)/dt (t=1,2,3…).

[5] = set-up: method as in ref 22 (Sutton et al. 2001); conditions: SPIP; ref 22 (Sutton et al. 2001); cited from earlier work
[6] = set-up: method as in ref 21 (Tugcu-Demiroz et al. 2014); conditions: Doluisio technique; ref 21 (Tugcu-Demiroz et al. 2014); cited from earlier work
[7] = after 8 h, rat perfusion experiments; cited from earlier work
[8] = Everted gut sac (EGS) permeability; assay type: in vitro ADME, rat
Procedure: Briefly, the male Wistar rats were fasted for 1 day with access to only double-distilled water and then anesthetized with ether. Then, the duodenum, jejunum, ileum, and colon (10–15 cm) were cut out and preserved in cold Krebs–Ringer buffer. After the intestinal residue was removed, the intestinal segments were everted by a glass rod and ligated onto the appropriate glass tube. […] Then, 0.4 mL of receiver fluid was collected from the everted intestinal segments, and an equal blank Krebs–Ringer buffer was replenished every 15 min during the experiment.
An internal standard (cresol red 100 μg/mL) was added to every 300-μL intestinal fluid sample. The mixture was vortexed for 30 s and dried under nitrogen blowing at 40 °C. The residue was redissolved in 150-μL methanol and vortexed for 30 s. The supernatant was then subjected to detection by HPLC after centrifuging at 10,000 rpm for 10 min.

[9] = rat complete small intestine, water flux corrected by PEG4k-PR, mean ± SD, n = 3
[10] = rat complete small intestine, water flux corrected by PEG5k-PR, mean ± SD, n = 3
[11] = rat complete small intestine, water flux corrected by PR, mean ± SD, n = 3

CC(C)NCC(O)COc1ccc(CC(N)=O)cc1 (stereo not drawn) [Atenolol]
Peff ([1]; colon, corrected by PEG5k-PR): 3.3e-05 cm/s | Peff ([1]; ileum, corrected by PEG5k-PR): 2.3e-05 cm/s | Peff ([1]; jejunum, corrected by PEG5k-PR): 2.6e-05 cm/s | Peff [1, 9]: 1.06 ± 0.24 ×10^−5 cm/s | Peff [1, 10]: 1.38 ± 0.34 ×10^−5 cm/s | Peff [1, 11]: 0.49 ± 0.10 ×10^−5 cm/s | Peff ([2]; colon): 2.11e-05 cm/s | Peff ([2]; ileum): 1.63e-05 cm/s | Peff ([2]; jejunum): 2.27e-05 cm/s | Ending (120 min) Conc. [3]: 105.93 ± 0.61 µM | Initial Conc. [3]: 105.19 ± 0.96 µM | Percentage of concentration change [3]: 0.75%

COCCc1ccc(OCC(O)CNC(C)C)cc1 (stereo not drawn) [Metoprolol]
Peff ([1]; colon, corrected by PEG5k-PR): 0.000102 cm/s | Peff ([1]; ileum, corrected by PEG5k-PR): 9.4e-05 cm/s | Peff ([1]; jejunum, corrected by PEG5k-PR): 0.000107 cm/s | Peff [1, 9]: 5.06 ± 0.57 ×10^−5 cm/s | Peff [1, 10]: 5.29 ± 1.49 ×10^−5 cm/s | Peff [1, 11]: 5.11 ± 0.85 ×10^−5 cm/s | Ending (120 min) Conc. [3]: 102.12 ± 0.58 µM | Initial Conc. [3]: 103.62 ± 2.29 µM | Percentage of concentration change [3]: 1.46%

Phenol red [PR]
Jwater (water flux) corrected by the marker [4]: 88.7 ± 37.9 µL/cm/h | average corrected water flux [5]: 26.8 ± 49.2 µL/cm/h | water flux [6]: 55 µL/cm/h | Ending (120 min) Conc. [3]: 56.11 ± 1.57 µM | Initial Conc. [3]: 56.90 ± 1.10 µM | Percentage of concentration change [3]: 1.38% | urinary recovery [7]: about 4% | cumulative permeable percentage ([8]; 56 μM, all intestinal segments): 3–5% | cumulative permeable percentage at 112 μM relative to 28 μM ([8]; colon): twice as large | Papp ([8]; colon, 28 μM): 4.07 ± 1.33 ×10^−6 cm/s | W (cumulative permeable percentage) ([8]; colon, 28 μM): 2.50 ± 0.82% | Papp ([8]; colon, 56 μM): 5.83 ± 1.9 ×10^−6 cm/s | W (cumulative permeable percentage) ([8]; colon, 56 μM): 3.36 ± 0.79% | Papp ([8]; colon, 112 μM): 8.57 ± 3.54 ×10^−6 cm/s | W (cumulative permeable percentage) ([8]; colon, 112 μM): 5.18 ± 1.22% | Papp ([8]; ileum, 28 μM): 6.17 ± 2.17 ×10^−6 cm/s | W (cumulative permeable percentage) ([8]; ileum, 28 μM): 3.55 ± 1.50% | Papp ([8]; ileum, 56 μM): 6.77 ± 2.32 ×10^−6 cm/s | W (cumulative permeable percentage) ([8]; ileum, 56 μM): 4.23 ± 1.38% | Papp ([8]; ileum, 112 μM): 8.90 ± 1.65 ×10^−6 cm/s | W (cumulative permeable percentage) ([8]; ileum, 112 μM): 5.27 ± 2.31% | Papp ([8]; jejunum, 28 μM): 7.68 ± 2.04 ×10^−6 cm/s | W (cumulative permeable percentage) ([8]; jejunum, 28 μM): 4.44 ± 1.98% | Papp ([8]; jejunum, 56 μM): 8.36 ± 3.11 ×10^−6 cm/s | W (cumulative permeable percentage) ([8]; jejunum, 56 μM): 4.92 ± 1.12% | Papp ([8]; jejunum, 112 μM): 10.42 ± 2.58 ×10^−6 cm/s | W (cumulative permeable percentage) ([8]; jejunum, 112 μM): 5.77 ± 1.70%
